ChEMBL document CHEMBL1144691, “Antiproliferative cassane diterpenoids of Cordyla madagascariensis ssp. madagascariensis from the Madagascar rainforest” (J Nat Prod, 2008)

Test system: A2780
Assay: Antiproliferative activity against human A2780 cells
Assay type: functional, cell-based

Row | IC50 [µM] | Compound
1 | 10 | CC(=O)OC[C@@]1(CO)CCC[C@]2(C)[C@H]3Cc4occc4[C@H](C)[C@@H]3C[C@@H](OC(C)=O)[C@@H]12 [CORDYLANE A]
2 | 36 | CC(=O)OC[C@]1(CO)CCC[C@]2(C)[C@H]3Cc4occc4[C@H](C)[C@@H]3C[C@@H](OC(C)=O)[C@@H]12 [CORDYLANE B]
3 | > 60 | C[C@H]1c2ccoc2C[C@H]2[C@H]1CC[C@H]1[C@@](CO)(C(=O)O)CCC[C@]21C [CORDYLANE C]
4 | > 60 | C=C1c2ccoc2C[C@H]2[C@H]1CC[C@H]1[C@@](CO)(C(=O)O)CCC[C@]21C [CORDYLANE D]
